Data on two molecules can be found in patent US20200239530A1, “COMPOUNDS AND METHODS OF MODULATING PROTEIN DEGRADATION” (Vividion Therapeutics, Inc., priority 2017, published 2020).

The structures appear in SMILES notation.

The test deals with T1, UBE2O (E3-independent) E2 ubiquitin-conjugating enzyme (Homo sapiens, UniProt Q9C0C9).
T1 construct: Cells were resuspended in cold PBS on ice and sonicated with a probe sonicator to achieve lysis; endogenous in cells
T1 sequence (Q9C0C9 1-1292): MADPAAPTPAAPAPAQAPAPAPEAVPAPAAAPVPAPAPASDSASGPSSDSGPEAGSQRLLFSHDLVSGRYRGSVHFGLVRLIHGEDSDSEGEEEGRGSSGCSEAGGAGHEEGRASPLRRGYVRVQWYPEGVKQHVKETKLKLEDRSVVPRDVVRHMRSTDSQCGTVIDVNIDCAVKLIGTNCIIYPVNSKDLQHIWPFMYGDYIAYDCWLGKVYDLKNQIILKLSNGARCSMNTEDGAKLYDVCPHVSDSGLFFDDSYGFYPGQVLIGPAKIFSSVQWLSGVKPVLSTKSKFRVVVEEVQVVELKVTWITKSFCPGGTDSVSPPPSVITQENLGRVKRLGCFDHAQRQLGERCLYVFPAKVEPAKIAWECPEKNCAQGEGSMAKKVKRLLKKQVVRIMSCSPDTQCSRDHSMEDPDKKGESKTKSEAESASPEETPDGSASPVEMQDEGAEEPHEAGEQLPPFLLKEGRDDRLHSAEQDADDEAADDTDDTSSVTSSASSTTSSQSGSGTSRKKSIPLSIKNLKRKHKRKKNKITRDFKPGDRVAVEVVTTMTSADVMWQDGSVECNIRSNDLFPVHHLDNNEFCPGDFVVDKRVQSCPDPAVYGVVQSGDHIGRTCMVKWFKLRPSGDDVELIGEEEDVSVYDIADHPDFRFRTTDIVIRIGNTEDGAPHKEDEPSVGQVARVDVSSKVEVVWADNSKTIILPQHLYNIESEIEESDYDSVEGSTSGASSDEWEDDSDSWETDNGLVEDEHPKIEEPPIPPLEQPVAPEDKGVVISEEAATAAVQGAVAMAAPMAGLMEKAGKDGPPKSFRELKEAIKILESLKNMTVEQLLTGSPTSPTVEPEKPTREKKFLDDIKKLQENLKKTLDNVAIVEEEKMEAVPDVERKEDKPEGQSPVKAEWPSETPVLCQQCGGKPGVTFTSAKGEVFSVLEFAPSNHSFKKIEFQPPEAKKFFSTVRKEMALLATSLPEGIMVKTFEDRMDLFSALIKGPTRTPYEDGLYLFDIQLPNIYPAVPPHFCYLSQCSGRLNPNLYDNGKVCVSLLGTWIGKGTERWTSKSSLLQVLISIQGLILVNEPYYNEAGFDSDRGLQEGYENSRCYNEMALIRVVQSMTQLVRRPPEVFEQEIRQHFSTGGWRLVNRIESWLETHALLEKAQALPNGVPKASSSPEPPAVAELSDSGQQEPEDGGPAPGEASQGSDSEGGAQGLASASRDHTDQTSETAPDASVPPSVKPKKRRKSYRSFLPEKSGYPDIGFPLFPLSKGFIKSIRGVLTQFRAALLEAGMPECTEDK
Nature of the test: Cysteine liganding, probe competition. The test is classed as binding. The gist of the method:
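Probe competition in native proteome: 5 mg/ml lysate, compound 1 hr 25° C, then desthiobiotin iodoacetamide (10 mM stock) 1 hr 25° C; acetone ppt, urea/DTT reduction, iodoacetamide alkylation, trypsin, streptavidin pull-down.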

For the molecule `COc1ccc2c(c1)CCCN2C(=O)CCl` [KB02], the Liganded entry is, setting by setting: (UBE2O Res# 370, uniprot Q9C0C9) “YES”; (UBE2O Res# 400, uniprot Q9C0C9) “YES”; (UBE2O Res# 910, uniprot Q9C0C9) “YES”; (UBE2O Res# 913, uniprot Q9C0C9) “YES”.
`O=C(CCl)Nc1cc(C(F)(F)F)cc(C(F)(F)F)c1` [KBO3]: under “UBE2O Res# 370, uniprot Q9C0C9”, the Liganded entry is reported as “YES”.
